Results as given in patent US12264173B2 (GILEAD SCIENCES, INC., priority 2020, dated 2025).
Read-outs that look alike come from different tables or passages of the source.

Legend:
Assay type in all cases: cell-based
[1] = test system: RSV A2; experiment: RSV NHBE EC50 (RSV A2 antiviral assay in NHBE cells); settings: human respiratory syncytial virus, NHBE, read-out: RSV NHBE EC50
Method in brief: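 NHBE cells (7,500/well, passage ≤6) given 3-fold serially diluted compound (0.05% DMSO final), then infected with RSV A2 at 1×10^4.5 tissue culture infectious doses/mL. After 4 days at 37 °C, viability measured by CellTiter-Glo luminescence at 25 °C.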

[2] = test system: HRV16; experiment: HRV16 HeLa EC50 (cytopathic effect in H1-HeLa cells); settings: read-out: HRV16 HeLa EC50
Method in brief: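 H1-HeLa cells seeded one day before, given 3-fold serial compound dilutions in triplicate just prior to infection with pre-titrated virus. Incubated 96 h at 33 °C/5% CO2; protection from cytopathic effect read as viability by CellTiter-Glo luminescence, normalised to infected untreated (0%) and uninfected (100%) controls.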

[3] = test system: RSV strain A2; experiment: microbe, parasite or virus in culture; settings: human respiratory syncytial virus, read-out: RSV HEp-2 EC50
Method in brief: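 Cytopathic-effect protection assay: HEp-2 cells (50,000/mL) infected with pre-titered RSV A2 onto 3-fold serial compound dilutions, incubated 4 days at 37° C. Cell viability read by CellTiter-Glo luminescence; percent inhibition derived against 0% and 100% virus-inhibition controls.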

[4] = test system: DENV2 replicon; experiment: DENV-2 Huh-7 Rep EC50 (replicon luminescence); settings: Dengue virus, DENV2, Huh-7, 48 h
Method in brief: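 Huh-7 cells carrying a DENV2 replicon, 5,000 cells/well, were incubated with dosed compounds for 48 h at 37° C. EnduRen live-cell substrate was added 1.5 h before luminescence reading. EC50 came from dose-response against DMSO-only wells.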

[5] = 96 h, Table 3, NHBE cells, RSV A2, 4 days
[6] = 96 h, Table 3, H1-HeLa cells, 96 h
[7] = HEp-2, 96 h, Table 3, HEp-2 cells, RSV A2, 4 days
[8] = read-out: DENV-2 REP Huh7 EC50, Table 3, Huh-7 DENV2 replicon cells, 48 hours

CC(=O)O[C@H]1[C@H](c2ccc3c(N)ncnn23)O[C@](C#N)(COP(=O)(N[C@@H](C)C(=O)OC(C)C)N[C@@H](C)C(=O)OC(C)C)[C@H]1OC(C)=O [Example 133, ((2R,3S,4R,5S)-5-(4-aminopyrrolo[2,1-f][1,2,4]triazin-7-yl)-2-cyano-3,4-diacetatetetrahydrofuran-2-yl)methyl bis-isopropyl L-alaninate phosphate]
EC50 [1, 5]: > 4070 nM
EC50 [2, 6]: > 48900 nM
EC50 [3, 7]: 18100 nM
EC50 [4, 8]: > 50 µM

CCOC(=O)[C@H](C)NP(=O)(N[C@@H](C)C(=O)OCC)OC[C@@]1(C#N)O[C@@H](c2ccc3c(N)ncnn23)[C@H](OC(C)=O)[C@@H]1OC(C)=O [Example 134, ((2R,3S,4R,5S)-5-(4-aminopyrrolo[2,1-f][1,2,4]triazin-7-yl)-2-cyano-3,4-diacetatetetrahydrofuran-2-yl)methyl bis-ethyl L-alaninate phosphate]
EC50 [1, 5]: 1590 nM
EC50 [2, 6]: > 50000 nM
EC50 [3, 7]: 7340 nM
EC50 [4, 8]: > 50 µM

CCC(=O)O[C@H]1[C@H](c2ccc3c(N)ncnn23)O[C@](C#N)(COP(=O)(N[C@@H](C)C(=O)OC2CCN(CC)CC2(F)F)Oc2ccccc2)[C@H]1OC(=O)CC (stereo partly drawn) [Example 135, (2R,3S,4S,5S)-5-(4-Aminopyrrolo[2,1-f][1,2,4]triazin-7-yl)-2-cyano-2-((((((2S)-1-((1-ethyl-3,3-difluoropiperidin-4-yl)oxy)-1-oxopropan-2-yl)amino)(phenoxy)phosphoryl)oxy)methyl)tetrahydrofuran-3,4-diyl dipropionate]
EC50 [1, 5]: 33 nM
EC50 [2, 6]: 1080 nM
EC50 [3, 7]: 738 nM
EC50 ([4]; read-out: DENV-2 REP Huh7 EC50): 30.6 µM

CC(C)C(=O)O[C@H]1[C@H](c2ccc3c(N)ncnn23)O[C@](C#N)(COP(=O)(N[C@@H](C)C(=O)O[C@H]2CC[C@H](N)CC2)Oc2ccccc2)[C@H]1OC(=O)C(C)C (stereo partly drawn) [Example 136, (2R,3S,4S,5S)-2-((((((S)-1-(((1r,4S)-4-aminocyclohexyl)oxy)-1-oxopropan-2-yl)amino)(phenoxy)phosphoryl)oxy)methyl)-5-(4-aminopyrrolo[2,1-f][1,2,4]triazin-7-yl)-2-cyanotetrahydrofuran-3,4-diyl bis(2-methylpropanoate)]
EC50 [1, 5]: 244 nM
EC50 [2, 6]: 15000 nM
EC50 [3, 7]: 2950 nM
EC50 ([4]; read-out: DENV-2 REP Huh7 EC50): 38.2 µM

CCOC(=O)[C@H](C)NP(=O)(N[C@@H](C)C(=O)OCC)OC[C@@]1(C#N)O[C@@H](c2ccc3c(N)ncnn23)[C@H](OC(=O)C(C)C)[C@@H]1OC(=O)C(C)C [Example 137, ((2R,3S,4R,5S)-5-(4-aminopyrrolo[2,1-f][1,2,4]triazin-7-yl)-2-cyano-3,4-diisobutylatetetrahydrofuran-2-yl)methyl bis-ethyl L-alaninate phosphate]
EC50 [1, 5]: 65 nM
EC50 ([1]; Table 5 comparative activity, 2',3'-OH vs -OC(O)iPr): 65 nM
EC50 [2, 6]: 1040 nM
EC50 ([2]; HeLa, Table 5 comparative activity, 2',3'-OH vs -OC(O)iPr): 1040 nM
EC50 [3, 7]: 467 nM
EC50 ([3]; HEp-2, Table 5 comparative activity, 2',3'-OH vs -OC(O)iPr): 467 nM
EC50 [4, 8]: 38.4 µM

COC(=O)[C@H](C)NP(=O)(OC[C@@]1(C#N)O[C@@H](c2ccc3c(N)ncnn23)[C@H](OC(=O)C(C)C)[C@@H]1OC(=O)C(C)C)Oc1ccccc1 (stereo partly drawn) [Example 138, (2R,3S,4S,5S)-5-(4-aminopyrrolo[2,1-f][1,2,4]triazin-7-yl)-2-cyano-2-((((((S)-1-methoxy-1-oxopropan-2-yl)amino)(phenoxy)phosphoryl)oxy)methyl)tetrahydrofuran-3,4-diyl bis(2-methylpropanoate)]
EC50 [1, 5]: 17 nM
EC50 [2, 6]: 101 nM
EC50 [3, 7]: 63 nM
EC50 ([4]; read-out: DENV-2 REP Huh7 EC50): 5.2 µM

CCC(=O)O[C@H]1[C@H](c2ccc3c(N)ncnn23)O[C@](C#N)(COP(=O)(N[C@@H](C)C(=O)OC)Oc2ccccc2)[C@H]1OC(=O)CC (stereo partly drawn) [Example 141, (2R,3S,4S,5S)-5-(4-aminopyrrolo[2,1-f][1,2,4]triazin-7-yl)-2-cyano-2-((((((S)-1-methoxy-1-oxopropan-2-yl)amino)(phenoxy)phosphoryl)oxy)methyl)tetrahydrofuran-3,4-diyl dipropionate]
EC50 [1, 5]: 23 nM
EC50 [2, 6]: 253 nM
EC50 [3, 7]: 80 nM
EC50 ([4]; read-out: DENV-2 REP Huh7 EC50): 7.49 µM

COC(=O)[C@H](C)NP(=O)(N[C@@H](C)C(=O)OC)OC[C@@]1(C#N)O[C@@H](c2ccc3c(N)ncnn23)[C@H](OC(=O)C(C)C)[C@@H]1OC(=O)C(C)C [Example 149, ((2R,3S,4R,5S)-5-(4-aminopyrrolo[2,1-f][1,2,4]triazin-7-yl)-2-cyano-3,4-diisobutylatetetrahydrofuran-2-yl)methyl bis-methyl L-alaninate phosphate]
EC50 [1, 5]: 84 nM
EC50 [2, 6]: 3190 nM
EC50 [3, 7]: 1150 nM
EC50 [4, 8]: > 35.8 µM

COC(=O)[C@H](C)NP(=O)(N[C@@H](C)C(=O)OC)OC[C@@]1(C#N)O[C@@H](c2ccc3c(NC(=O)C(C)C)ncnn23)[C@H](OC(=O)C(C)C)[C@@H]1OC(=O)C(C)C [Example 150, ((2R,3S,4R,5S)-5-(4-isobutyramidopyrrolo[2,1-f][1,2,4]triazin-7-yl)-2-cyano-3,4-diisobutylatetetrahydrofuran-2-yl)methyl bis-methyl L-alaninate phosphate]
EC50 [1, 5]: 70 nM
EC50 [2, 6]: 3480 nM
EC50 [3, 7]: 1400 nM
EC50 [4, 8]: > 50 µM

COCC(=O)O[C@H]1[C@H](c2ccc3c(N)ncnn23)O[C@](C#N)(CO[P@@](=O)(N[C@@H](C)C(=O)OC(C)C)Oc2ccccc2)[C@H]1OC(=O)COC [Example 151, (2R,3S,4S,5S)-5-(4-aminopyrrolo[2,1-f][1,2,4]triazin-7-yl)-2-cyano-2-((((S)-(((S)-1-isopropoxy-1-oxopropan-2-yl)amino)(phenoxy)phosphoryl)oxy)methyl) tetrahydrofuran-3,4-diyl bis(2-methoxyacetate)]
EC50 [1, 5]: 751 nM
EC50 [2, 6]: 946 nM
EC50 [3, 7]: 226 nM
EC50 ([4]; read-out: DENV-2 REP Huh7 EC50): 19.5 µM

CC(C)OC(=O)[C@H](C)N[P@](=O)(OC[C@@]1(C#N)O[C@@H](c2ccc3c(N)ncnn23)[C@H](OC(=O)CC(C)(C)O)[C@@H]1OC(=O)CC(C)(C)O)Oc1ccccc1 [Example 152, (2R,3S,4S,5S)-5-(4-aminopyrrolo[2,1-f][1,2,4]triazin-7-yl)-2-cyano-2-((((S)-(((S)-1-isopropoxy-1-oxopropan-2-yl)amino)(phenoxy)phosphoryl)oxy)methyl) tetrahydrofuran-3,4-diyl bis(3-hydroxy-3-methylbutanoate)]
EC50 [1, 5]: > 5000 nM
EC50 [2, 6]: > 50000 nM
EC50 [3, 7]: 2930 nM
EC50 ([4]; read-out: DENV-2 REP Huh7 EC50): > 50 µM

CC(C)[C@@H](N)C(=O)O[C@H]1[C@H](c2ccc3c(N)ncnn23)O[C@](C#N)(CO[P@@](=O)(N[C@@H](C)C(=O)OC2CCCCC2)Oc2ccccc2)[C@H]1OC(=O)[C@H](N)C(C)C [Example 153, (2R,3S,4S,5S)-5-(4-aminopyrrolo[2,1-f][1,2,4]triazin-7-yl)-2-cyano-2-((((S)-(((S)-1-(cyclohexyloxy)-1-oxopropan-2-yl)amino)(phenoxy)phosphoryl)oxy)methyl)tetrahydrofuran-3,4-diyl (2R,2′R)-bis(2-amino-3-methylbutanoate)]
EC50 [1, 5]: 283 nM
EC50 [2, 6]: 470 nM
EC50 [3, 7]: 110 nM
EC50 ([4]; read-out: DENV-2 REP Huh7 EC50): 6.68 µM
